# In patent US20100120703A1, “COMPOSITIONS AND METHODS FOR TREATING CANCER” (priority 2007, published 2010):
# Columns and labels:
# [1] = system: HepG2 cells; assay: cDNA microarray, drug toxicity and metabolism genes; format: cell-based, human; conditions: HepG2 cells before and after SIN treatment
# Description: The advancement of nucleic acid array technology has made it possible to analyze the expression of multiple genes in a single experiment. The cDNA Microarray is used to characterize gene expression associated with a specific biological pathway in a more comprehensive and cost effective manner. The genes on the cDNA microarray membrane are targeted to the drug toxicity and metabolism pathways. It is a useful approach to study the biological activities of SIN.
# HepG2 cells were treated and harvested as described in the foregoing examples. The cell pellet was dissolved in 500 μl TRIzol® reagent (Invitrogen, CA, USA). The whole solution was allowed to stand at room temperature for 5 minutes. The solution was centrifuged at 14,000 rpm for 10 minutes at 4° C. The supernatant was collected in a new tube with 100 μl chloroform. After shaking and incubation for 10 minutes at room temperature, the solution was centrifuged at 14,000 rpm for 15 minutes at 4° C. Recentrifugation was necessary if the layer was not clear. The upper aqueous layer was carefully transferred into a new tube with 250 μl isopropanol. After shaking, the tube was allowed to stand at room temperature for 10 minutes for RNA precipitation. […]
# cRNA purification was performed with SuperArray Array Grade cRNA Cleanup Kit. […] The quality and quantity of the cRNA product were determined as described previously. […]
# [2] = system: Sprague Dawley (SD) rats; assay: Serum AST/ALT assay, promotion stage; format: in vivo, rat; conditions: promotion stage (FIG. 10), 15 mg/kg oral daily
# Excerpt: In the promotion stage experiment, rats in the negative control group received weekly intraperitoneal (i.p.) injection of DMSO for the first 2 weeks and then Corn Oil for the rest of the schedule. Rats in the positive control and SIN-treatment groups both received weekly intraperitoneal (i.p.) injection of the carcinogen DEN for the first 2 weeks and then promoter, Carbon Tetrachloride (CCl4) for the rest of the schedule. Two weeks of fasting were inserted between the initiator carcinogen treatment and the promoter CCl4 treatment. During the fasting period of 2 weeks, rats were fasted for 5 days, followed by a 2 day feeding, and another 5 days of fasting. Water was given ad libitum. Negative and positive control groups received oral treatment of water once a day after fasting. Sinigrin with dosage 15 mg/kg was administered orally to the treatment group daily for 28 weeks after fasting. […]
# The serum AST activity assay was measured by a Stanbio AST (UV-Rate) kit. […] Absorbance was measured at OD 340 nm. After incubation for 1 minute, a reading was taken and the reading at this point was counted as time zero. Readings were then taken at 30 second interval for 3 minutes. The change of absorbance per minute was calculated and the AST activity was calculated by the formula
# The ALT assay was measured by a Stanbio […]. […]
# [3] = system: Sprague Dawley (SD) rats; assay: DEN/CCl4-induced hepatoma in rats, progression stage: liver observation and weight; format: in vivo, rat; conditions: 15 mg/kg oral daily for 24 weeks
# Excerpt: The effect of SIN on progression stage of cancer development was studied. FIG. 20 summarized the protocol applied to rats. The amounts of rats and grouping method were all the same as in the promotion stage experiment.
# Rats in the negative control group received weekly intraperitoneal (i.p.) injection of DMSO for the first 2 weeks and then Corn Oil for 28 weeks. Rats in the positive control and SIN-treatment groups both received weekly intraperitoneal (i.p.) injection of DEN for the first 2 weeks and then CCl4 for 28 weeks. Two weeks of fasting were inserted between DEN treatment and CCl4 treatment. Starting from 33rd week, negative and positive control groups received oral administration of water once a day. Sinigrin with dosage 15 mg/kg was administered orally to the SIN-treatment group daily for 24 weeks. After treatment, the rats were killed. Blood and liver were collected and processed as described in the foregoing examples.
smiles,measurement,setting,value
"C=CC/C(=N/OS(=O)(=O)[O-])S[C@@H]1OC(CO)[C@@H](O)C(O)C1O.[K+] (some centres unmarked) [SIN, sinigrin]",gene expression in drug toxicity and metabolism pathways,[1],many genes in drug toxicity and metabolism pathways were differentially expressed
same,rat serum ALT level,[2],levels similar to those in the negative control
same,rat serum AST level,[2],levels similar to those in the negative control
same,percentage of liver weight and liver weight index vs negative group,[3],only slightly higher
same,visible tumors on liver (direct observation),[3],few visible tumors
